Values after ≈ are worked out from the molar mass of the structure shown. Values joined by “and” are separate entries in the source; they are usually repeats but may differ in a detail not shown here. Identical values can stand only once. “Also recorded” adds a separate entry of the source.
Key:
Format in all cases: physicochemical
[1] = Stability of the solid forms to phase transformation (overall finding); conditions: variety of conditions
[2] = DSC and thermomicroscopy of solid-state transformations
Experimental: A Nikon POH-2 polarized light compound microscope with 10× objective is employed to view specimens mounted dry between a glass microscope slide and a no. 11/2 Cover slip. The samples are heated from ambient through 250° C. in a Mettler FP-80 microfurnace controlled by a Mettler FP-8 microprocessor. The heating rates may vary from 5-20° C./minute. The hot-stage experiments may be videotaped (Sony T120-HG and PM VHS tape) with a Hitachi VK-C350 Color Video Camera and a Panasonic AG-6200 Video Cassette Recorder.
Differential scanning calorimetry (DSC) is used to monitor enthalpy changes as a function of temperature during a linear temperature increase. A DuPont 910 DSC interfaced to a TA Instruments TA2100 computer may be used. The scan rate is 5° C./minute, and the instrument is operated with a 50-80 cc/min dry nitrogen purge. Samples are encapsulated in hermetically sealed aluminum sample pans with a pressure rating of about 2 bar. In some experiments, the lids of the pans are perforated to permit the passage of moisture and other volatile components.
Because calorimetric samples are occasionally affected by residual moisture, samples are sometimes studied with different initial water activities. Samples are weighed into tared DSC pans, and the open pans are permitted to equilibrate for several days in chambers of constant relative humidity at 25±1° C. These chambers are prepared from saturated salt solutions at 53% RH and 75% RH. At the end of the equilibration period, the chambers are opened, and the lids are placed over the samples to prevent re-equilibration with the ambient atmosphere. The samples are removed from the chambers, and the pans are quickly crimped closed.
Detailed description of FIG. 8. […] The heating rate is 5° C./minute. (a.) The sample is encapsulated in a standard DSC pan. (b.) The sample is encapsulated in a hermetically sealed DSC pan. The profiles are offset along the ordinate axis for comparison.
Detailed description of FIG. 10. […] The heating rate was 5° C./minute. (a.) The sample was equilibrated at 53% RH and encapsulated in a standard DSC pan. (b.)The sample was equilibrated at 53% RH and encapsulated in a hermetically sealed DSC pan. (c.) The sample was equilibrated at 75% RH and encapsulated in a hermetically sealed DSC pan. The profiles were offset along the ordinate axis for comparison.

[3] = Isothermal calorimetry (ITC) of Form I to Form III conversion; conditions: after ITC at 40° C
Experimental: Isothermal calorimetry (ITC) experiments are conducted using a model 2277 microcalorimeter made by ThermoMetric (see Suurkuusk, J.:Wadso, I. Chem. Scr. (1982) Vol. 20 pp. 155-163). The Digitam® version 2.1 software from Thermometric is used to display the data and to integrate the total heat obtained from the samples. Heat flow is monitored as a function of time at 60° C. and at 40° C. Both glass and stainless steel ampules are used to hold the solid samples and the reference material (quartz sand). Samples are thermally equilibrated for a period ranging from 15 minutes (glass ampules) to 1 hour (stainless steel ampules) prior to recording thermal data. The weight of the samples ranged from about 75 to 300 mg. Samples in glass ampules are equilibrated via the isopiestic method at 53% or 75% RH in chambers containing saturated solutions of sodium chloride or calcium nitrate tetrahydrate. The ampules are capped immediately after removing the samples. Other samples are equilibrated using "microhygrostats" containing small quantities of saturated salt solutions which are sealed within the ampules. This arrangement provided for nearly constant relative humidity as the crystal conversion proceeded.
We therefore studied the transformation of samples after equilibration at […] and 75% RH. […] HPLC analysis of the reaction product confirmed that the 60° C. ITC profiles contained negligible contributions from chemical decomposition.
A detailed explanation of FIG. 9 follows. […] Trace (a) is recorded from a sample of Form I equilibrated to 75% relative humidity before sealing the sample container and exposing it to the 60° C. conditions in the calorimeter. Trace (b) is recorded for a sample of Form I at 60° C., but a 75% relative humidity "microhygrostat" is placed in the sample container just prior to recording the data. The conversion is delayed from that of trace (a) due to the fact that the water must be transported from the microhygrostat to the Form I crystals during the experiment. Trace (c) is recorded for a sample of Form I at 60° C., but the sample was equilibrated at 53% relative humidity prior to sealing the sample container.
This trace results from placing a 75% relative humidity microhygrostat into the sample container just prior to recording the data. The sample is held at 40° C. in the calorimeter; the heat flow results as the Form I material converts to Form III.

[4] = Enthalpies of solution (solution calorimetry); conditions: Form III grown directly from solution
Experimental: The enthalpies of solution are determined in 50 mL of 0.1 M HCl at 25.0±0.05° C. Samples (0.10-0.11 g ) are weighed in 2 ml spherical, soft glass ampules and dried overnight in an evacuated desiccator over P2 O5. The ampules are removed, capped, weighed, and flame sealed. The enthalpies of solution are measured on a Tronac model 458 isoperibol solution calorimeter. The calorimetric accuracy of this instrument is within 1% based on calibration with tris(hydroxymethyl)-aminomethane (TRIS) in 0.1 N HCl.

[5] = Solubility of the quinolone, Forms I and III, in ethyl acetate; conditions: 20° C, two values given
Experimental: Bulk drug samples are prepared by dissolving the material in mobile phase at a final concentration of approximately 0.25 to 0.5 mg/ml. For solubility experiments, 100 mcl aliquots of ethyl acetate solutions are withdrawn and placed directly into HPLC autosampler vials. A gentle stream of nitrogen gas is used to evaporate the solvent in the sample vials. The solids are reconstituted with 0.5 ml of HPLC mobile phase prior to analysis.
Solubilities are measured in ethyl acetate. Five to ten milligrams of bulk drug are placed into an amber autoinjector vial, and 3.0 ml of ethyl acetate are added. The vials are capped and shaken for intervals up to 24 hours at room temperature using a Burrell model BB wrist-action shaker. Aliquots are withdrawn from the supernate after centrifugation. The final sample is taken from a quiescent solution which had not been shaken since the 24 hour timepoint.
The solubilities of Forms I and III were determined in ethyl acetate at room temperature; the solubility data for each form was gathered simultaneously, to assure that each form's solubility was measured under identical conditions. Ethyl acetate was employed as an aprotic solvent yielding fairly low equilibrium solubilities of the quinolone; ethyl acetate has been used to evaluate the difference in free energy of polymorphic forms of an antinociceptive drug, as described by K. Raghavan et al., J. Pharm. Biomed. Anal. Vol.12 (6), pp. 777-785 (1994). Under the assumption that the solubilities in TABLE S are consistent with the dilute solution limit, we can use the following expression to calculate the difference in Gibbs free energy between Form I and Form III: [formula] where "sx " is the solubility of Form x in a sufficiently dilute solution, R is the gas constant, and T is the absolute temperature. Using the data in Table 1, we find that the Gibbs free energy of Form III is lower than that of Form I by 7.7±0.2 kJ/mole.

[6] = Dynamic moisture sorption gravimetry (controlled atmosphere microbalance, 25° C)
Experimental: Dynamic Moisture Sorption Gravimetry
Dynamic moisture uptake is studied on the controlled atmosphere microbalance system at 25° C. About ten mg of sample are equilibrated on the balance for about 2 hours at 2.5% RH. The relative humidity surrounding the sample is increased in increments of 3% RH up to about 92% RH, at which point the RH is decremented in 3% steps to a final RH of about 2.5%. At each relative humidity, the sample is allowed to equilibrate until the mass is stable within 0.0005 mg over a ten minute period. The dry mass is assumed to correspond to the mass of the sample after the initial equilibration period. A controlled atmosphere microbalance is a balance system described by Bergren, M.S. Int. J. Pharm. (1994) Vol. 103, pp. 103-114.
(§1) Detailed description of FIG. 2. […] The ordinate represents the mass change relative to the lowest mass measurement. The abscissa is relative humidity. The circles represent points recorded after sequential increases in the relative humidity and the squares were recorded after decreases in the relative humidity. The horizontal line in the middle of the plot corresponds to the water content of the hypothetical monohydrate of the quinolone.
as §1, with “6.” for “2.”

Temperature of Form II to Form III transformation ([2]; melt/recrystallization)	Moisture content of recovered Form III crystals [3]	Enthalpy of fusion ([2]; DSC)	Enthalpy of Form III lower than Form I by [4]	Solubility, concentration ([5]; 1 hour, 60 min)	Solubility, concentration ([5]; 2 hours, 120 min)	Solubility, concentration ([5]; 4.5 hours, 270 min)	Solubility, concentration ([5]; 18 hours, 1080 min)	Solubility, concentration ([5]; 24 hours, 1440 min)	Solubility, concentration ([5]; 67.5 hours (not shaken after 24 hours), 4050 min)	Moisture adsorbed ([6]; throughout the entire RH range)	SMILES	Stability to transformation (in words) [1]	Stability to transformation (in words) ([1]; listed as methanolate)	Moisture sorption behaviour (in words) ([6]; 25° C, sorption/desorption)
											CN[C@@H](C)[C@@H]1CCN(c2c(F)cc3c(=O)c(C(=O)O)cn(C4CC4)c3c2OC)C1 [Form MS, [S-(R*,S*)]-1-cyclopropyl-6-fluoro-1,4-dihydro-8-methoxy-7-[3-[1-(methylamino)ethyl]-1-pyrrolidinyl]-4-oxo-3-quinolinecarboxylic acid]	undergo phase transformations under a variety of conditions	desolvates to yield Form I under such mild conditions that solvent is not normally retained in the product crystals	
166-171 °C											CN[C@@H](C)[C@@H]1CCN(c2c(F)cc3c(=O)c(C(=O)O)cn(C4CC4)c3c2OC)C1 [Form II, [S-(R*,S*)]-1-cyclopropyl-6-fluoro-1,4-dihydro-8-methoxy-7-[3-[1-(methylamino)ethyl]-1-pyrrolidinyl]-4-oxo-3-quinolinecarboxylic acid]	undergo phase transformations under a variety of conditions		
	0.61%	approximately 150 J/g	about 8.8 kJ/mole	60 µg/mL and 90 µg/mL	110 µg/mL (≈ 273 µM)	120 µg/mL (≈ 297 µM)	140 µg/mL (≈ 347 µM)	150 µg/mL (≈ 372 µM)	140 µg/mL (≈ 347 µM)	less than 0.5%	CN[C@@H](C)[C@@H]1CCN(c2c(F)cc3c(=O)c(C(=O)O)cn(C4CC4)c3c2OC)C1 [Form III, [S-(R*,S*)]-1-cyclopropyl-6-fluoro-1,4-dihydro-8-methoxy-7-[3-[1-(methylamino)ethyl]-1-pyrrolidinyl]-4-oxo-3-quinolinecarboxylic acid]	stable to transformation		sorbs less moisture than Form I at all relative humidities; also recorded: very little hysteresis between the sorption and desorption profiles, and the sample exhibited no evidence of recrystallization and/or hydrate Formation

— patent publication US5985893A, “Physically stable solid form of a fluoroquinolone” (Pharmacia & Upjohn Company, priority 1996, dated 1999)
